Two molecules from publication PMC6213216, “AbeTx1 Is a Novel Sea Anemone Toxin with a Dual Mechanism of Action on Shaker-Type K^+ Channels Activation” (Marine Drugs, 2018) can be followed below.

Assay type in all cases: cell-based
The target of one data set is T1, rKV1.1 (Rattus norvegicus, UniProt P10499).
T1 construct: expressed in transfected cells; host or cells: Xenopus laevis oocytes injected with cRNA
The data set can be described thus: Two-electrode voltage-clamp on Xenopus laevis oocytes expressing rKV1.1. Conditions: for IC50: concentration-response curve, percentage blocked current fitted with Hill equation, TEVC oocytes, 0 mV from −90 mV, read-out: KV1.1 IC50. The protocol:
(§1) The pharmacological effect of AbeTx1 was analyzed by heterologous expression of 12 voltage-gated potassium channels isoforms (rKV1.1, Genbank NM173095; rKV1.2, Genbank NM012970; hKV1.3, Genbank L23499; rKV1.4,Genbank NM012971; rKV1.5, Genbank NM012972; rKV1.6, Genbank NM575671; Shaker IR from Drosophila melanogaster, Genbank CG12348; rKV2.1, Genbank NM013186; hKV3.1, Genbank NM004976; rKV4.2, Genbank NM031730; rKV4.3, Genbank NM031739 and hERG, Genbank NM000238), and three voltage-gated sodium channel subtypes (rNaV1.2, Genbank NM012647; rNaV1.4, Genbank M26643 and BgNaV1.1, from Blattella germanica) (r, rat; h, human) in oocytes from Xenopus laevis. The linearized plasmids were transcribed using a T7 or SP6 mMESSAGE-mMACHINE transcription kit (Life Technologies, Austin, TX, USA). Oocytes were injected with 20–50 nL of cRNA at a concentration of 1 ng·nL^−1 using a microinjector (Drummond Scientific, Broomall, PA, USA). The oocytes were stored for 1–3 days at 16 °C until sufficient expression of voltage-gated ion channels was achieved. Oocytes were maintained in an ND96 solution (in mM: 96 NaCl, 2 KCl, 1.8 CaCl2, 2 MgCl2 and 5 HEPES; pH 7.4), supplemented with 50 µg·mL^−1 gentamicin sulfate.
(§2) Two-electrode voltage-clamp recordings were performed at room temperature (18–22 °C) using a Geneclamp 500 amplifier (Molecular Devices, Sunnyvale, CA, USA) controlled by a pClamp data acquisition system (Axon Instruments, Union City, CA, USA). ND96 was used as bath solution. Whole-cell currents from oocytes were recorded 1–3 days after injection. Voltage and current electrodes were filled with KCl (3 M). The resistance of both electrodes was kept between 0.8–1.0 MΩ. The elicited currents were filtered at 0.5 or 2 kHz using a four-pole low-pass Bessel filter. Leak subtraction was performed using a -P/4 protocol. KV1.1-KV1.6 and Shaker IR currents were evoked by 500 ms depolarization to 0 mV, followed by a 500 ms pulse to −50 mV, from a holding potential of −90 mV. KV2.1, KV3.1, KV4.2, and KV4.3 currents were elicited by 500 ms pulses to + 20 mV from a holding potential of −90 mV. Current traces of hERG channels were elicited by applying a +40 mV pulse for 2.5 s, followed by a step to −120 mV for 2.5 s. Sodium current traces were evoked by 100 ms depolarization steps from a holding potential of −90 mV to 0 mV. Concentration-response curves were constructed by adding different AbeTx1 or analogs concentrations directly to the bath solution. The percentage of the KV blockade was plotted against the logarithm of the applied concentrations and fitted with the Hill Equation (1):y = 100/[1 + (IC50/[toxin]) × h](1) where y is the amplitude of the toxin-induced effect, IC50 is the toxin concentration at half-maximal efficacy, [toxin] is the toxin concentration, and h is the Hill coefficient. To investigate the effects on the voltage dependence of activation, current traces were evoked by 10 mV depolarization steps from a holding potential of −90 mV. Data were normalized to the maximal K^+ current amplitude, plotted against prepulse potential, and fitted using the Boltzmann Equation (2):IK/Imax = [1 + (exp(Vg − V)/k] − 1(2) where Imax represents maximal potassium current (IK), Vg is the voltage corresponding to half-maximal current, and k is the slope factor. Each experimental data represents mean ± standard error of at least three oocytes (n ≥ 3) from different frogs. Effect of the toxin on current-voltage experiments was statistically examined by comparing the control condition and the presence of toxin using the Student’s paired t-test. P-values < 0.05 are considered to be statistically significant. Data were analyzed using Clampfit 10.4 (Molecular Devices, Sunnyvale, CA, USA) and Origin v8.1 software (Origin Lab, Northampton, MA, USA), under the institutional license of the University of São Paulo.

The target in the next data set is T2, rKV1.2 (Rattus norvegicus, UniProt P63142).
T2 construct: expressed in transfected cells; host or cells: Xenopus laevis oocytes injected with cRNA
The data set can be described thus: Two-electrode voltage-clamp on Xenopus laevis oocytes expressing rKV1.2. The conditions noted are these: 3 µM AbeTx1; TEVC, X. laevis oocytes, 500 ms depolarization to 0 mV from holding −90 mV; mean ± SE, n ≥ 3; SEM; read-out: inhibition of KV1.2 current. The method, then:
as §1, with “Oocytes were injected with 20–50 nL of cRNA at a concentration of 1 ng·nL^−1 using a microinjector (Drummond Scientific, Broomall, PA, USA). The oocytes were stored for 1–3 days at 16 °C until sufficient expression of voltage-gated ion channels was achieved. Oocytes were maintained in an ND96 solution (in mM: 96 NaCl, 2 KCl, 1.8 CaCl2, 2 MgCl2 and 5 HEPES; pH 7.4), supplemented with 50 µg·mL^−1 gentamicin sulfate.” left out
(§3) Two-electrode voltage-clamp recordings were performed at room temperature (18–22 °C) using a Geneclamp 500 amplifier (Molecular Devices, Sunnyvale, CA, USA) controlled by a pClamp data acquisition system (Axon Instruments, Union City, CA, USA). […] Whole-cell currents from oocytes were recorded 1–3 days after injection. […] Data were analyzed using Clampfit 10.4 (Molecular Devices, Sunnyvale, CA, USA) and Origin v8.1 software (Origin Lab, Northampton, MA, USA), under the institutional license of the University of São Paulo.

A further data set concerns the target T3, hKV1.3 (Homo sapiens, UniProt P22001).
T3 construct: expressed in transfected cells; host or cells: Xenopus laevis oocytes injected with cRNA
The data set can be described thus: Two-electrode voltage-clamp on Xenopus laevis oocytes expressing hKV1.3. The conditions noted are these: 3 µM AbeTx1; TEVC, X. laevis oocytes, 500 ms depolarization to 0 mV from holding −90 mV; mean ± SE, n ≥ 3; SEM; read-out: inhibition of KV1.3 current. The protocol: as §1, with “Oocytes were injected with 20–50 nL of cRNA at a concentration of 1 ng·nL^−1 using a microinjector (Drummond Scientific, Broomall, PA, USA). The oocytes were stored for 1–3 days at 16 °C until sufficient expression of voltage-gated ion channels was achieved. Oocytes were maintained in an ND96 solution (in mM: 96 NaCl, 2 KCl, 1.8 CaCl2, 2 MgCl2 and 5 HEPES; pH 7.4), supplemented with 50 µg·mL^−1 gentamicin sulfate.” left out
as §3

For the next data set, the target named is T4, rKV1.6 (Rattus norvegicus, UniProt P17659).
T4 construct: expressed in transfected cells; host or cells: Xenopus laevis oocytes injected with cRNA
The data set can be described thus: Two-electrode voltage-clamp on Xenopus laevis oocytes expressing rKV1.6. Conditions: for IC50: concentration-response curve, percentage blocked current fitted with Hill equation, TEVC oocytes, 0 mV from −90 mV, read-out: KV1.6 IC50. The method, then: as §1, §2

Another data set addresses T5, Shaker IR (Drosophila melanogaster, UniProt P08510, DEL6-46).
T5 construct: expressed in transfected cells; host or cells: Xenopus laevis oocytes injected with cRNA
Briefly: Two-electrode voltage-clamp on Xenopus laevis oocytes expressing Shaker IR. The conditions noted are these: 3 µM AbeTx1; TEVC, X. laevis oocytes, 500 ms depolarization to 0 mV from holding −90 mV; mean ± SE, n ≥ 3; SEM; read-out: inhibition of Shaker IR current. The method, then: as §1, with “Oocytes were injected with 20–50 nL of cRNA at a concentration of 1 ng·nL^−1 using a microinjector (Drummond Scientific, Broomall, PA, USA). The oocytes were stored for 1–3 days at 16 °C until sufficient expression of voltage-gated ion channels was achieved. Oocytes were maintained in an ND96 solution (in mM: 96 NaCl, 2 KCl, 1.8 CaCl2, 2 MgCl2 and 5 HEPES; pH 7.4), supplemented with 50 µg·mL^−1 gentamicin sulfate.” left out
as §3

The next data set addresses T6, hERG (Homo sapiens, UniProt Q12809).
T6 construct: expressed in transfected cells; host or cells: Xenopus laevis oocytes injected with cRNA
Briefly: Two-electrode voltage-clamp on Xenopus laevis oocytes expressing hERG (KV11.1). Conditions: 3 µM AbeTx1; TEVC, X. laevis oocytes, +40 mV pulse 2.5 s then −120 mV 2.5 s. The protocol:
as §1, with “Oocytes were injected with 20–50 nL of cRNA at a concentration of 1 ng·nL^−1 using a microinjector (Drummond Scientific, Broomall, PA, USA). The oocytes were stored for 1–3 days at 16 °C until sufficient expression of voltage-gated ion channels was achieved. Oocytes were maintained in an ND96 solution (in mM: 96 NaCl, 2 KCl, 1.8 CaCl2, 2 MgCl2 and 5 HEPES; pH 7.4), supplemented with 50 µg·mL^−1 gentamicin sulfate.” left out
as §3

Another data set concerns the target T7, rNaV1.2 (Rattus norvegicus, UniProt P04775).
T7 construct: expressed in transfected cells; host or cells: Xenopus laevis oocytes injected with cRNA
Briefly: Two-electrode voltage-clamp on Xenopus laevis oocytes expressing rNaV1.2. The conditions noted are these: 3 µM AbeTx1; TEVC, X. laevis oocytes, 100 ms depolarization from −90 mV to 0 mV. The method, then: as §1, with “Oocytes were injected with 20–50 nL of cRNA at a concentration of 1 ng·nL^−1 using a microinjector (Drummond Scientific, Broomall, PA, USA). The oocytes were stored for 1–3 days at 16 °C until sufficient expression of voltage-gated ion channels was achieved. Oocytes were maintained in an ND96 solution (in mM: 96 NaCl, 2 KCl, 1.8 CaCl2, 2 MgCl2 and 5 HEPES; pH 7.4), supplemented with 50 µg·mL^−1 gentamicin sulfate.” left out
as §3

The next data set addresses T8, rNaV1.4 (Rattus norvegicus, UniProt P15390).
T8 construct: expressed in transfected cells; host or cells: Xenopus laevis oocytes injected with cRNA
The data set can be described thus: Two-electrode voltage-clamp on Xenopus laevis oocytes expressing rNaV1.4. Conditions: 3 µM AbeTx1; TEVC, X. laevis oocytes, 100 ms depolarization from −90 mV to 0 mV. The method, then: as §1, with “Oocytes were injected with 20–50 nL of cRNA at a concentration of 1 ng·nL^−1 using a microinjector (Drummond Scientific, Broomall, PA, USA). The oocytes were stored for 1–3 days at 16 °C until sufficient expression of voltage-gated ion channels was achieved. Oocytes were maintained in an ND96 solution (in mM: 96 NaCl, 2 KCl, 1.8 CaCl2, 2 MgCl2 and 5 HEPES; pH 7.4), supplemented with 50 µg·mL^−1 gentamicin sulfate.” left out
as §3

Positions of bridges follow the written chain, without caps; N, C: chain ends. Residues, ends and D or L forms follow the SMILES beside them.

T1 sequence (P10499 whole entry): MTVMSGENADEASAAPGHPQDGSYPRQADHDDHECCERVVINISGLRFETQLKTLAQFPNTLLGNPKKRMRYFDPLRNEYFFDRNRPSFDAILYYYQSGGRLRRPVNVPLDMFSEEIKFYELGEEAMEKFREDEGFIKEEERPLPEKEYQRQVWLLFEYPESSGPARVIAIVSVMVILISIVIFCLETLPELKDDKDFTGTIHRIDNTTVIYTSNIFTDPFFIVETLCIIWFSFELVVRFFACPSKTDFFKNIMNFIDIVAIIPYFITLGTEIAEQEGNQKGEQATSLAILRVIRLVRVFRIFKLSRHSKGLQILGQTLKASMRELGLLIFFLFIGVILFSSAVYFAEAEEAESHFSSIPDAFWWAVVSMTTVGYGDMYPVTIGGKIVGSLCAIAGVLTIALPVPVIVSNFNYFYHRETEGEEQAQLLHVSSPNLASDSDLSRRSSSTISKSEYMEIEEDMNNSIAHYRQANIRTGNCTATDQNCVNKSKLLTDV
T4 sequence (P17659 whole entry): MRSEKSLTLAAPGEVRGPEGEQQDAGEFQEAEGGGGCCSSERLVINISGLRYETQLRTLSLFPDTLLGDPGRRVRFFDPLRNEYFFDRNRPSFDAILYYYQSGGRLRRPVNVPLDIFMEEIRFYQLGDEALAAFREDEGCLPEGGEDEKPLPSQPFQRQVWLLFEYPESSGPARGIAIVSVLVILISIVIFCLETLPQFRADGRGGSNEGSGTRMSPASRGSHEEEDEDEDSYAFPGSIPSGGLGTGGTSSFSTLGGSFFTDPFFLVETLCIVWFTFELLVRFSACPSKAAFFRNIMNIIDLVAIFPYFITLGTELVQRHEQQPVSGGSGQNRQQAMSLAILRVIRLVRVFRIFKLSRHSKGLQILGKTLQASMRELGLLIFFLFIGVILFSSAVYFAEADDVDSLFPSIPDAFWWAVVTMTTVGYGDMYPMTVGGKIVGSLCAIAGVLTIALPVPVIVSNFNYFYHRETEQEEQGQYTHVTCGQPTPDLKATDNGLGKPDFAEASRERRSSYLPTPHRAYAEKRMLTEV
T7 sequence (P04775 whole entry): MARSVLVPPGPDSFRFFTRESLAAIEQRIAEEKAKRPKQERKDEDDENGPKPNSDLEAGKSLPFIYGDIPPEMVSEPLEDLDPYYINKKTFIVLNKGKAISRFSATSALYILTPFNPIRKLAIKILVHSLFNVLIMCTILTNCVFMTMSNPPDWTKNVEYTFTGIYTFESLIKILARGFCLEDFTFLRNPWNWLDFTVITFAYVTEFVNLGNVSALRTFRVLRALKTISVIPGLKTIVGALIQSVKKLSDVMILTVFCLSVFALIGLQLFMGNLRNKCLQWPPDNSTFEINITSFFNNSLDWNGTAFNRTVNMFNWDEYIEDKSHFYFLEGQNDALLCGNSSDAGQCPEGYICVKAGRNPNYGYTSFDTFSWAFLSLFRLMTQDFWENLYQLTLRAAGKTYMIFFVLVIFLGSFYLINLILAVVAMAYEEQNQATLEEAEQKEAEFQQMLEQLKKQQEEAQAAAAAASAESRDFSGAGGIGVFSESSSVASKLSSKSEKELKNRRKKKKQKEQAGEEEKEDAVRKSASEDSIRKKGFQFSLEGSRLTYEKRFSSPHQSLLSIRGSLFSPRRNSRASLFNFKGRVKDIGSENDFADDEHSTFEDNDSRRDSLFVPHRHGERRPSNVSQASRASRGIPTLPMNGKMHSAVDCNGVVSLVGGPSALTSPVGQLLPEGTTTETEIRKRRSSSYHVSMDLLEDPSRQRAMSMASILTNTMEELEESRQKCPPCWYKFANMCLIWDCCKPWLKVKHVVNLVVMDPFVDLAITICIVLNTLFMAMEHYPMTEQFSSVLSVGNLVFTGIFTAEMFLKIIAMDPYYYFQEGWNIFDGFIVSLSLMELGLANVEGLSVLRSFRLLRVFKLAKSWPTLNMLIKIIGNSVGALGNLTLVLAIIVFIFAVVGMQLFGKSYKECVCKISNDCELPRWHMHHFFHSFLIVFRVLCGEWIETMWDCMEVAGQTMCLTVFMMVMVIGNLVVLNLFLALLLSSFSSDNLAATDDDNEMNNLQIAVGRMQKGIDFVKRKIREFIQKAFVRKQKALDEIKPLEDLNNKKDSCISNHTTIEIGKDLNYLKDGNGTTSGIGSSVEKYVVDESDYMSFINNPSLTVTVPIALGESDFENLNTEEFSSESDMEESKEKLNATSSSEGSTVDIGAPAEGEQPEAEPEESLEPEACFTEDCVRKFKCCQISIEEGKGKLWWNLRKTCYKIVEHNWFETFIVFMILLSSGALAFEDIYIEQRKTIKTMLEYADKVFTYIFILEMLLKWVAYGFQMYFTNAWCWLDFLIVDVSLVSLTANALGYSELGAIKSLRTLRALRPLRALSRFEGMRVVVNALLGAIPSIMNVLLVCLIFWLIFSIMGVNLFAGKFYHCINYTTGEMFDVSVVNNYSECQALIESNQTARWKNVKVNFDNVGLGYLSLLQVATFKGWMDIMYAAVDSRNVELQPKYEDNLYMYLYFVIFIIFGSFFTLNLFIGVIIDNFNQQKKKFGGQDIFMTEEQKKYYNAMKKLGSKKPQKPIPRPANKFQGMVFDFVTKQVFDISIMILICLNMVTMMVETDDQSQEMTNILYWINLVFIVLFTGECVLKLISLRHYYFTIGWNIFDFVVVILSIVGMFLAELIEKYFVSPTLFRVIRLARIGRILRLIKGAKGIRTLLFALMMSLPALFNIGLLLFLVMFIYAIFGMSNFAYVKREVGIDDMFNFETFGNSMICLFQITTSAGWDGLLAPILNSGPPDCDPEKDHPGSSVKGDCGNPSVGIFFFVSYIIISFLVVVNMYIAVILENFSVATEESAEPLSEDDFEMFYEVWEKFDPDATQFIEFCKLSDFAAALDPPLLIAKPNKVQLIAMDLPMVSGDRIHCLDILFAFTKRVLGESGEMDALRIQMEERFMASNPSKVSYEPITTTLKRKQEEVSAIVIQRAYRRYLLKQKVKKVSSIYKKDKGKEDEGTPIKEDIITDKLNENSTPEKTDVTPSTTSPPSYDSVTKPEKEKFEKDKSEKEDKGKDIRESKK
T2 sequence (P63142 whole entry): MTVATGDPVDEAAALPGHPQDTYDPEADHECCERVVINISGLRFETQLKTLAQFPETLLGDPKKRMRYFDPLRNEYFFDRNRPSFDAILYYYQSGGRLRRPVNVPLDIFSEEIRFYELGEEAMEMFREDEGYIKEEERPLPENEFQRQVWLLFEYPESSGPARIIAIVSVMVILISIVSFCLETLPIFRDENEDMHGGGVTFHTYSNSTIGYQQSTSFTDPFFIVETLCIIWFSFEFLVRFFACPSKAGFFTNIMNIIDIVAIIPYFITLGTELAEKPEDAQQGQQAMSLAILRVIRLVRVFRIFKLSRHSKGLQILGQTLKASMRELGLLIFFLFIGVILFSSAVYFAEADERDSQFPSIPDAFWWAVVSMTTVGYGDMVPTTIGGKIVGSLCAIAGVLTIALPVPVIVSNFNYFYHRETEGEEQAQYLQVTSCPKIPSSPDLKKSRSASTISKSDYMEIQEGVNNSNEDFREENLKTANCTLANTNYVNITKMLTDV
T3 sequence (P22001 whole entry): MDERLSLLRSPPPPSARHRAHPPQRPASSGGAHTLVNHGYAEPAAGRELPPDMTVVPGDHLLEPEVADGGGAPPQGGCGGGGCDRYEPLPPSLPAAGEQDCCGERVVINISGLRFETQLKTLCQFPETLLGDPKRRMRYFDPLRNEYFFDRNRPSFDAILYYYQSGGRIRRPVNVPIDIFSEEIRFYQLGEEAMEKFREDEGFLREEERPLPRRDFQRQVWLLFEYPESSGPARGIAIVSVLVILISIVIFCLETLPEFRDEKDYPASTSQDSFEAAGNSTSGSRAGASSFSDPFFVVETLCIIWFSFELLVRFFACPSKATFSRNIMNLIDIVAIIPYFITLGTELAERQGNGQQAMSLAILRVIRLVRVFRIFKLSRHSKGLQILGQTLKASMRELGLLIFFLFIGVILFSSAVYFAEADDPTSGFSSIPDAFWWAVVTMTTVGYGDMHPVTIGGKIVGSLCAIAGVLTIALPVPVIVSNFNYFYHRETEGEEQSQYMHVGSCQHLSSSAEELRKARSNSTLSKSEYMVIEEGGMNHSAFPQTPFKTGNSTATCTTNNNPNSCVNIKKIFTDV
T5 sequence (P08510 with tags, fused parts or gaps DEL6-46): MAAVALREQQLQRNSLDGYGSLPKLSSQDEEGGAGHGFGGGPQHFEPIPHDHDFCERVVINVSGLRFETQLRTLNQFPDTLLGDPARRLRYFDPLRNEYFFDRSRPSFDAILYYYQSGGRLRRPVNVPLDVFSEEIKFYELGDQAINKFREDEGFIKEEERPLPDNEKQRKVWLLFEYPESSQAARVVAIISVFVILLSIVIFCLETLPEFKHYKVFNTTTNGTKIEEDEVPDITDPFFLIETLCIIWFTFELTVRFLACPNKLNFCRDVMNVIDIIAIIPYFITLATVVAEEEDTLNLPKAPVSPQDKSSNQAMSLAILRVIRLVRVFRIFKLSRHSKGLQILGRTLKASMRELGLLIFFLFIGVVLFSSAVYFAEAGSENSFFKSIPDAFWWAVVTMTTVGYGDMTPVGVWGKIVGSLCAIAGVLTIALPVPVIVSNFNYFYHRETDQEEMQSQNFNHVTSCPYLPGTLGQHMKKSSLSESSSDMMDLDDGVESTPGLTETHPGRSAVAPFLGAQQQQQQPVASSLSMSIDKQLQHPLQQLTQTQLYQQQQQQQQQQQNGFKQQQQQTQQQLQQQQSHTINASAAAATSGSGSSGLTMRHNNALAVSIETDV

For `C[C@@H](O)[C@@H]1NC(=O)[C@H](CCCCN)NC(=O)[C@@H](NC(=O)[C@@H](N)CCCNC(=N)N)CSSC[C@@H](C(=O)NCC(=O)O)NC(=O)[C@H](CC(N)=O)NC(=O)[C@@H]2CCCN2C(=O)[C@H](CCCCN)NC(=O)[C@@H]2CCCN2C(=O)[C@H](CCCNC(=N)N)NC(=O)[C@@H]2CSSC[C@H](NC1=O)C(=O)N[C@@H](CO)C(=O)N[C@@H](CCCCN)C(=O)NCC(=O)N[C@@H](CCCNC(=N)N)C(=O)N2` [AbeTx1] (H-RCKTCSKGRCRPKPNCG-OH; disulfide 2-16, 5-10), the inhibition at 3 µM at rKV1.1 (3 µM AbeTx1, TEVC, X. laevis oocytes, 500 ms depolarization to 0 mV from holding −90 mV, mean ± SE, n ≥ 3, SEM, read-out: inhibition of KV1.1 current) is 83.7 ± 1.45%; on rKV1.2 it was 95.3 ± 1.45%; at hKV1.3, 19.7 ± 2.18%; at rKV1.6 (3 µM AbeTx1, TEVC, X. laevis oocytes, 500 ms depolarization to 0 mV from holding −90 mV, mean ± SE, n ≥ 3, SEM, read-out: inhibition of KV1.6 current) it was 95 ± 2.44%; on Shaker IR it was 15.5 ± 1.8%. The “reduction of KV1.1 current, toxin added on top of TEA” value on rKV1.1 (AbeTx1 600 nM applied to bath already containing 200 μM TEA, n = 6) amounted to 71.20 ± 2.18%. In addition, at rKV1.1 (AbeTx1 600 nM, test potential +70 mV from holding −90 mV, n = 6), the “reduction of the KV1.1 K+ current at +70 mV” value is recorded as 11.07 ± 1.12%. Besides, at rKV1.1 (AbeTx1 600 nM, test potential −20 mV from holding −90 mV, n = 6), the “reduction of the KV1.1 K+ current at −20 mV” value is given as 53.47 ± 5.07%. The 50% inhibitory concentration (IC50) on rKV1.1 (mean ± SE, n ≥ 3, SEM) was 672 ± 150 nM; at rKV1.6 (mean ± SE, n ≥ 3, SEM), 116 ± 31.4 nM. Also, the “reduction of KV1.6 current, toxin added on top of TEA” value on rKV1.6 (AbeTx1 120 nM applied to bath already containing 920 μM TEA) is 55.33 ± 2.47%. Also, the “effect on KV11.1 (hERG) current” value on hERG is “not affected”. Further, the “activity on NaV1.2” value on rNaV1.2 is on record as “no activity”. Moreover, on rNaV1.4, the “activity on NaV1.4” value is “no activity”.

Take `C[C@H](N)C(=O)N[C@H]1CSSC[C@@H](C(=O)NCC(=O)O)NC(=O)[C@H](CC(N)=O)NC(=O)[C@@H]2CCCN2C(=O)[C@H](CCCCN)NC(=O)[C@@H]2CCCN2C(=O)[C@H](CCCNC(=N)N)NC(=O)[C@@H]2CSSC[C@H](NC(=O)[C@H]([C@@H](C)O)NC(=O)[C@H](CCCCN)NC1=O)C(=O)N[C@@H](CO)C(=O)N[C@@H](CCCCN)C(=O)NCC(=O)N[C@@H](CCCNC(=N)N)C(=O)N2` [Arg1Ala] (H-ACKTCSKGRCRPKPNCG-OH; disulfide 2-16, 5-10): the IC50 on rKV1.1 (mean ± SE, n ≥ 3, SEM) worked out at 1970 nM; at rKV1.6 (mean ± SE, n ≥ 3, SEM), 3530 nM.
